Measurements reported in patent publication US20250035641A1, “COMPOSITIONS AND METHODS RELATED TO PROTEIN LABELING” (The Chinese University of Hong Kong, priority 2023, published 2025).

Target: T1, endogenous BRD4 (Homo sapiens, UniProt O60885)
T1 construct: endogenous BRD4 in cell line stably expressing fOGT; endogenous in cells
Assay: IP-WB of endogenous BRD4 in cell line stably expressing fOGT
Format: cell-based
Source text: We next pursued the induction of POI O-GlcNAcylation independent of Halotag; this could facilitate the induction of O-GlcNAcylation on endogenous POIs for their functional dissection. […] As OGTAC-4 directly recruit BRD4, we first try to assess its potency on endogenous BRD4 in cell line stably expressing fOGT. […] Then, we overexpressed BRD4 together with fOGT in HEK293T cells to accommodate the readout to fit in IP-WB detection limit. As expected, in the co-expression system, we validated the O-GlcNAcylation inducing effect of OGTAC-4. […] Of note, OGTAC-4 promoted BRD4 O-GlcNAcylation and the formation of a stable ternary complex between BRD4 and fOGT at concentrations as low as 3 nM (FIG. 4C & FIG. 14). […] This may be due to the sub-stoichiometric catalytic activity of OGTAC-4; at lower concentration, OGTAC-4 can still be effective because after enzymatic transfer of O-GlcNAc from fOGT active site to BRD4, the BRD4 would dissociate from the original ternary complex and other unmodified BRD4 could be recruited to fOGT by OGTAC-4. However, OGTAC-1 covalently linked to HTN-BRD4, and AP1867 binds tightly to fOGT. therefore, once HTN-BRD4 dissociated, free OGTAC-1 molecules may form binary complex with fOGT and inhibit other HTN-BRD4 from formation of new ternary complex. […]

Q: Which “O-GlcNAc signal on endogenous BRD4 (IP-WB, RL2)” value does the source give for CC[C@H](C(=O)N1CCCC[C@H]1C(=O)O[C@H](CCc1ccc(OC)c(OC)c1)c1cccc(OCC(=O)NCCCCCCNC(=O)C[C@@H]2N=C(c3ccc(Cl)cc3)c3c(sc(C)c3C)-n3c(C)nnc32)c1)c1cc(OC)c(OC)c(OC)c1 [OGTAC-4, (R)-1-(3-(2-((6-(2-((S)-4-(4-chlorophenyl)-2,3,9-trimethyl-6H-thieno[3,2-f[]8 1,2,4]triazolo[4,3-a][1,4]diazepin-6-yl)acetamido)hexyl)amino)-2-oxoethoxy)phenyl)-3-(3,4-dimethoxyphenyl)propyl (S)-1-((S)-2-(3,4,5-trimethoxyphenyl)butanoyl)piperidine-2-carboxylate] here?
A: failed to detect any signal
